Assay [1] concerns the target Protein cereblon/Bromodomain-containing protein 2 (Homo sapiens) (UniProt P25440+Q96SW2). Kind of assay: PROTAC activity at CRBN/BRD2 in human MV4-11 cells assessed as maximal degradation of BRD2 protein level at 0.5 uM incubated for 4 hrs by Western blotting assay relative to control. The assay is classed as cell-based.
The next assay relates to MV4-11. Kind of assay: Antitumor activity against human MV4-11 cells xenografted in BALB/c nude mouse assessed as tumor growth inhibition at 25 mg/kg, po administered once daily for 17 days relative to control. Type of assay: functional. As to conditions: MV4-11, 408 h, time 17 day, read-out: TGI.
A further assay concerns MOLT-4. The assay is described as follows: Antiproliferative activity against human MOLT-4 cells assessed as reduction in cell viability incubated for 72 hrs by CellTiter-Glo Luminescent assay. The assay is classed as functional, cell-based. The settings on record: MOLT-4, 72 h.
Assay [2] concerns the target T1, Protein cereblon/Wee1-like protein kinase (Homo sapiens) (UniProt P30291+Q96SW2). The assay is described as follows: PROTAC activity at CRBN/Wee1 in human MV4-11 cells assessed as maximal degradation of Wee1 at 100 nM measured after 2 hrs by Western blot analysis relative to control. The assay is classed as cell-based. On the technique in general: Immunoblotting shows a protein as a band on a membrane.

For assay [3], the target named is Protein cereblon/Cyclin-dependent kinase 12 (Homo sapiens) (UniProt Q9NYV4+Q96SW2). Kind of assay: PROTAC activity at CRBN/CDK12 in human HeLa cells assessed as maximal degradation of CDK12 at 1 uM measured after 24 hrs by Western blot analysis relative to control. Type of assay: cell-based.
In assay [4] the target is Protein cereblon/Poly [ADP-ribose] polymerase 1 (Homo sapiens, UniProt P09874+Q96SW2). The assay is described as follows: PROTAC activity at CRBN/PARP1 in human SW620 cells assessed as degradation of PARP1 measured after 24 hrs by Western blot analysis. Type of assay: cell-based.
Assay [5] has as its target T1, Protein cereblon/Wee1-like protein kinase (Homo sapiens). Kind of assay: PROTAC activity at CRBN/Wee1 in human MV4-11 cells assessed as maximal degradation of Wee1 at 1 uM measured after 2 hrs by Western blot analysis relative to control. The assay is classed as cell-based.
In assay [6] the target is T2, von Hippel-Lindau disease tumor suppressor/SWI/SNF-related matrix-associated actin-dependent regulator of chromatin subfamily A member 2 (Homo sapiens, UniProt P51531+P40337). The assay is described as follows: PROTAC activity at VHL/SMARCA2 in human MV4-11 cells assessed as induction of SMARCA2 degradation at 10 uM by measuring maximal efficacy incubated for 20 hrs by Western blotting analysis relative to control. Type of assay: cell-based.

For assay [7], the target named is T2, von Hippel-Lindau disease tumor suppressor/SWI/SNF-related matrix-associated actin-dependent regulator of chromatin subfamily A member 2. Kind of assay: PROTAC activity at VHL/SMARCA2 in human RKO cells assessed as degradation of SMARCA2 incubated for 18 hrs by Western blot analysis. The assay is classed as cell-based.
Assay [8] has as its target T3, von Hippel-Lindau disease tumor suppressor/SWI/SNF-related matrix-associated actin-dependent regulator of chromatin subfamily A member 4 (Homo sapiens, UniProt P51532+P40337). Kind of assay: PROTAC activity at VHL/SMARCA4 in human RKO cells assessed as maximal degradation of SMARCA4 at 10 nM relative to control. The assay is classed as cell-based.
Target sequence in this assay (P40337 whole entry, looked up): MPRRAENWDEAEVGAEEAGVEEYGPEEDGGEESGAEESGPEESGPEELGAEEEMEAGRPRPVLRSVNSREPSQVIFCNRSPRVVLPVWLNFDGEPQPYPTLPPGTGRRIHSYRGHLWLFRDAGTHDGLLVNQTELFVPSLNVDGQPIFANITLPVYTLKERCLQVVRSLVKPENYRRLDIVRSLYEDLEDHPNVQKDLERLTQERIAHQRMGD
Target sequence in this assay (P51532 whole entry, looked up): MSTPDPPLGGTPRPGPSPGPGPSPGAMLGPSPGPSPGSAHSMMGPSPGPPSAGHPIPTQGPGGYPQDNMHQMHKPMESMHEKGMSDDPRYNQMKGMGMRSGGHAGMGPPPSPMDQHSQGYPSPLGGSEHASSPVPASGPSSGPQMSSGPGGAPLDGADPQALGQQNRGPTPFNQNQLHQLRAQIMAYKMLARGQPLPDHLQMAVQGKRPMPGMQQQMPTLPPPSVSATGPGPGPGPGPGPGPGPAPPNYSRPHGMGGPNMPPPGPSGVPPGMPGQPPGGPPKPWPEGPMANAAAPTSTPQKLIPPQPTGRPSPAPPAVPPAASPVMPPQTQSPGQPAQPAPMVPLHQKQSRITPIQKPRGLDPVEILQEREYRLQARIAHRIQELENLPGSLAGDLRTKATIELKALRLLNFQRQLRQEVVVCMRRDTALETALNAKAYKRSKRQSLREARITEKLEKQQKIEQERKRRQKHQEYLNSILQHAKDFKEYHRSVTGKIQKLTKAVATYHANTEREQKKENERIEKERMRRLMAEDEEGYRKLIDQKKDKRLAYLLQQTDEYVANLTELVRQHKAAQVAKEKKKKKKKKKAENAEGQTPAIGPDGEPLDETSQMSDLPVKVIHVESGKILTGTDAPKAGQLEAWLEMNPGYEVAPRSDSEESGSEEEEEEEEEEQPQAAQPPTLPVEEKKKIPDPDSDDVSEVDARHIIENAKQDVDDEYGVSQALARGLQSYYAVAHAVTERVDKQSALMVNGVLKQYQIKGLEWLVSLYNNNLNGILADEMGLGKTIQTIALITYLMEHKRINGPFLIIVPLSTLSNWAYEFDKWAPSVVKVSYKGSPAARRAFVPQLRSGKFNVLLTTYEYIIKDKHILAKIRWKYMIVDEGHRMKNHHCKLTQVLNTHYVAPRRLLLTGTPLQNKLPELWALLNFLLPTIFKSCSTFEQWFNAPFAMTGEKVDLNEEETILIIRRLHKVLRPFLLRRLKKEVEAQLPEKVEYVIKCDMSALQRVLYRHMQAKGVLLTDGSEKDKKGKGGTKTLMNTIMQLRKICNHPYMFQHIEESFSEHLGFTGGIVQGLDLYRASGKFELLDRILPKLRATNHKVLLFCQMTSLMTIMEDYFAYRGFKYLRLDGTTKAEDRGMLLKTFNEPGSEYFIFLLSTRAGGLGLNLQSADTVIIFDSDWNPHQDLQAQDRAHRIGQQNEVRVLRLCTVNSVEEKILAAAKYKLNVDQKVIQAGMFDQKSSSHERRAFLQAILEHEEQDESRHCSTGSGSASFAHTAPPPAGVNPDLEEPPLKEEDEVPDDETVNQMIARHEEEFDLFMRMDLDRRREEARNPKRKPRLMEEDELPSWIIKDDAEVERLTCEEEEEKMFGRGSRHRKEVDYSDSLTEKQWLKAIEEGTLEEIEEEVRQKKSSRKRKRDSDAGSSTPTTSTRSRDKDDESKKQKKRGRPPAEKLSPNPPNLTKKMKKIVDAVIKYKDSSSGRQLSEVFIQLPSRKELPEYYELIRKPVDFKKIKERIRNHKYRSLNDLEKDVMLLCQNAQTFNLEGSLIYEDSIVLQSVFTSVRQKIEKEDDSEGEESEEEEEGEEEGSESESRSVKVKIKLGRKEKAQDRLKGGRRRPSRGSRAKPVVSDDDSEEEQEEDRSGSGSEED
The target in assay [9] is T3, von Hippel-Lindau disease tumor suppressor/SWI/SNF-related matrix-associated actin-dependent regulator of chromatin subfamily A member 4. The assay is described as follows: PROTAC activity at VHL/SMARCA4 in human RKO cells assessed as degradation of SMARCA4. Type of assay: cell-based.
Target sequence in this assay (P51532 whole entry): as the sequence (P51532 whole entry, looked up) above
Target sequence in this assay (P40337 whole entry): as the sequence (P40337 whole entry, looked up) above
For assay [10], the target named is T4, von Hippel-Lindau disease tumor suppressor/Serine/threonine-protein kinase ATR (Homo sapiens) (UniProt Q13535+P40337). Kind of assay: PROTAC activity at […]/VHL in […] human HCT-116 cells assessed as maximum protein degradation at 5 uM measured after 24 hrs by immunoblot analysis relative to control. Type of assay: cell-based.
T4 sequence (P40337 whole entry, looked up): as above
T4 sequence (Q13535 whole entry, looked up): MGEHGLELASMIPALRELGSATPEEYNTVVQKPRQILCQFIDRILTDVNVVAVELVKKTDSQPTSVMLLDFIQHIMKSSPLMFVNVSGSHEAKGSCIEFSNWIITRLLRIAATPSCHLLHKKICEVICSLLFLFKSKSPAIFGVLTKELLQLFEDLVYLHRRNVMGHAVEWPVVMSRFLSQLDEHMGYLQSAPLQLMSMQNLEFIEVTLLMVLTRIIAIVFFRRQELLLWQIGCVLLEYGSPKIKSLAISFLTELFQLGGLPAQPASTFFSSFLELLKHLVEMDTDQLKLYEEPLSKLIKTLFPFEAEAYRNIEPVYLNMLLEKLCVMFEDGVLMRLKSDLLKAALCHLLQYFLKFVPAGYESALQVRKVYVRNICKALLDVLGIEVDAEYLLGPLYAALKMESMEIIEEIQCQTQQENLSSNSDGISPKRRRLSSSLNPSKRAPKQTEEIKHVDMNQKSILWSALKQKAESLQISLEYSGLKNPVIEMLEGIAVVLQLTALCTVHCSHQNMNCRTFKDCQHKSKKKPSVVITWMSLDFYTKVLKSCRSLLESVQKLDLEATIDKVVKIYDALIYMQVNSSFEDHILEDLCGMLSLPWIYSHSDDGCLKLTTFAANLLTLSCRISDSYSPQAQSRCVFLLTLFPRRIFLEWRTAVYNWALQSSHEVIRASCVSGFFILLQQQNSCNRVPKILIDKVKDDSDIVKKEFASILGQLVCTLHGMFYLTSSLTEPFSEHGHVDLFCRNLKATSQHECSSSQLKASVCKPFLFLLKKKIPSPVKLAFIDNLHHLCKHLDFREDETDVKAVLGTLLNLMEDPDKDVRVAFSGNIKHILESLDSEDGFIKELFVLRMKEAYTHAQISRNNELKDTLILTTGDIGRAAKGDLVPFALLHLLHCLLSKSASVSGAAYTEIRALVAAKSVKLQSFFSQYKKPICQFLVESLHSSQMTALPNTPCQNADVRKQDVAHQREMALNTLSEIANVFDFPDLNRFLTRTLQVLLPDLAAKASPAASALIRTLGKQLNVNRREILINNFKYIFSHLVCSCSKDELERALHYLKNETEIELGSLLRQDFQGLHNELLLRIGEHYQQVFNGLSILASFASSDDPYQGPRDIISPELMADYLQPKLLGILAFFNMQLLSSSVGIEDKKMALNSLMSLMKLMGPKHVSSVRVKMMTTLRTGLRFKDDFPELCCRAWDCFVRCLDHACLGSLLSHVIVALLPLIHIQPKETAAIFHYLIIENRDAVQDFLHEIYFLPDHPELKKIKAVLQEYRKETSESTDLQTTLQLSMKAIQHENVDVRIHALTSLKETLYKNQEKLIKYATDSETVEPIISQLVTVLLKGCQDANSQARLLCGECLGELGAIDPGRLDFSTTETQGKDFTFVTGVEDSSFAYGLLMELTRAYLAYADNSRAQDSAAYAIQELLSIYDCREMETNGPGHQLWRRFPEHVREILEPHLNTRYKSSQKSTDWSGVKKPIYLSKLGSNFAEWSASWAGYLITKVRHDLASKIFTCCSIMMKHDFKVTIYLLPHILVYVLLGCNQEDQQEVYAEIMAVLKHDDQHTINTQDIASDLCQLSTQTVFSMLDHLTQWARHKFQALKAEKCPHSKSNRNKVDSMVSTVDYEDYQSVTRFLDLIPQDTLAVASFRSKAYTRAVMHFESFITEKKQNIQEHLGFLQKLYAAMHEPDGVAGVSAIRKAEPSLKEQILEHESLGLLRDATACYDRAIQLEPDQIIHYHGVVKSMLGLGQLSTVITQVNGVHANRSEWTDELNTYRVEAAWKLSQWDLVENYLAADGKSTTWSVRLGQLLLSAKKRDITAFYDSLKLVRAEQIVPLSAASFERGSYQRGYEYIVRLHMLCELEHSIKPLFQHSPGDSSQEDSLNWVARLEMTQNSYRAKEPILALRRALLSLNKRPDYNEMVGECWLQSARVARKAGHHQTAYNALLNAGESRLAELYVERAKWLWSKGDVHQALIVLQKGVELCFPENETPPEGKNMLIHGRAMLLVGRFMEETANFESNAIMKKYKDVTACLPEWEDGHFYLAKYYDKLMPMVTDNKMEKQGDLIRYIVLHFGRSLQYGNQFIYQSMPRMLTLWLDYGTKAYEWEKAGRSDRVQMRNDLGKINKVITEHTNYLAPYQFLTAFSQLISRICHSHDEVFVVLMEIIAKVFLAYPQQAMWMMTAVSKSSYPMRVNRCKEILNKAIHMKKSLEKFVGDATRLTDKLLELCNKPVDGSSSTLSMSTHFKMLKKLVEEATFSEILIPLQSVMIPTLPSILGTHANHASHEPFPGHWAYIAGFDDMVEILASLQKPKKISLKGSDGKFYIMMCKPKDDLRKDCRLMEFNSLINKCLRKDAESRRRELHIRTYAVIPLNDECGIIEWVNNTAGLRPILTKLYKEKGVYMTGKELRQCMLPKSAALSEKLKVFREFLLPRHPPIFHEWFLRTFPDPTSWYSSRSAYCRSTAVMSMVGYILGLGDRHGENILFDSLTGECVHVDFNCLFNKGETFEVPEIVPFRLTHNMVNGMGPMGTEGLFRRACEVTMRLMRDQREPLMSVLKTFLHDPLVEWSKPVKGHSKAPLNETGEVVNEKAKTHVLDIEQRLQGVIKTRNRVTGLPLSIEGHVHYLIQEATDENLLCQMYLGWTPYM
Assay [11] addresses T4, von Hippel-Lindau disease tumor suppressor/Serine/threonine-protein kinase ATR (Homo sapiens). Kind of assay: PROTAC activity at […]/VHL in human LoVo cells assessed as maximum protein degradation at 5 uM measured after 24 hrs by immunoblot analysis relative to control. Type of assay: cell-based.
Assay [12] concerns LoVo. The assay is described as follows: Antitumor activity against human LoVo cells xenografted in BALB/c mouse assessed as tumor growth inhibition at 25 mg/kg, ip administered once daily for 14 days relative to control. Type of assay: functional. As to conditions: 336 h, time 14 day, read-out: TGI.
Assay [13] relates to LoVo. Kind of assay: Antitumor activity against human LoVo cells xenografted in BALB/c mouse assessed as tumor growth inhibition at 50 mg/kg, ip administered once daily for 14 days relative to control. The settings on record: 336 h, time 14 day, read-out: TGI. The assay is classed as functional. A general note: Xenograft models place foreign cells or tissue in a host animal.

Take `Nc1ncc(-c2ccc(C(=O)N3CCN(CCCCC(=O)Nc4cccc5c4C(=O)N(C4CCC(=O)NC4=O)C5=O)CC3)cc2)nc1C(=O)Nc1ccccc1` (configuration not stated): the Emax in assay [1] is > 50%. Moreover, the inhibition in vivo at 25 mg/kg with MV4-11 was found to be 57%.

As for `C=CCn1c(=O)c2cnc(Nc3ccc(N4CCN(CCCNc5cccc6c5C(=O)N(C5CCC(=O)NC5=O)C6=O)CC4)cc3)nc2n1-c1cccc(C(C)(C)O)n1` (configuration not stated), the IC50 in the assay with MOLT-4 is 0.39 µM. Moreover, the maximum response (Emax) in assay [2] came to 50%.

`C=CCn1c(=O)c2cnc(Nc3ccc(N4CCN(C)CC4)cc3)nc2n1-c1cccc(C(C)(C)O)n1` [ADAVOSERTIB]: in the assay on MOLT-4, the IC50 came out at 0.8 µM.

As for `C=CCn1c(=O)c2cnc(Nc3ccc(N4CCN(CCCC(=O)NCCOCCOCCNc5cccc6c5C(=O)N(C5CCC(=O)NC5=O)C6=O)CC4)cc3)nc2n1-c1cccc(C(C)(C)O)n1` (configuration not stated), in assay [3], the Emax is > 80%.

In the case of `O=C(CCCCCCCCCCC(=O)c1cc(Cc2n[nH]c(=O)c3ccccc23)ccc1F)Cc1cccc2c1CN(C1CCC(=O)NC1=O)C2=O` (configuration not stated), in assay [4], the DC50 is 5.4 µM.

With `C=CCn1c(=O)c2cnc(Nc3ccc(N4CCN(CCCC(=O)N[C@H](C(=O)N5C[C@H](O)C[C@H]5C(=O)NCc5ccc(-c6scnc6C)cc5)C(C)(C)C)CC4)cc3)nc2n1-c1cccc(C(C)(C)O)n1`, the Emax in [5] is > 70%.

For `COc1ccc(C(=O)/C=C/C(=O)N2CCN(c3cc(-c4ccccc4O)nnc3N)CC2)cc1`, the Emax in assay [6] was > 95%.

`Cc1ncsc1-c1ccc([C@@H](CCCN2CCC(c3ccc4c(c3)n(C3CCCC3)c3nc(=O)c5c(Br)cccc5n43)CC2)NC(=O)[C@@H]2C[C@@H](O)CN2C(=O)[C@@H](NC(=O)C2(F)CC2)C(C)(C)C)cc1`: in assay [7], the DC50 came to 0.002 µM. In assay [8], the Emax is 77%.

For the compound `Cc1ncsc1-c1ccc(CNC(=O)[C@@H]2C[C@@H](O)CN2C(=O)[C@@H](NC(=O)C2(F)CC2)C(C)(C)C)c(OCCCN2CCC(c3ccc4c(c3)n(C3CCCC3)c3nc(=O)c5c(Br)cccc5n43)CC2)c1`, the Emax in assay [8] was 46%. For the same compound, the DC50 in [9] is 0.078 µM.

Turning to `C[C@H]1COCCN1c1cc(C2([S@](C)(=O)=NC(=O)CCc3cn(CCCCCCCC(=O)Nc4cccc5c4C(=O)N(C4CCC(=O)NC4=O)C5=O)nn3)CC2)nc(-c2ccnc3[nH]ccc23)n1` (some centres not stated), the Emax in [10] and in assay [11] was > 80% each time. In addition, the inhibition in vivo at 25 mg/kg in the assay with LoVo [12] was 35.9%. Also, in the assay with LoVo [13], the inhibition in vivo at 50 mg/kg was found to be 51.8%.

Usually Emax stands for the greatest response seen or fitted, relative to the assay's reference. The IC50 is the concentration that inhibits the measured activity by half. In general, DC50 refers to the concentration giving 50% degradation.

These data come from ChEMBL document CHEMBL5543165, “Recent Progress in DNA Damage Response-Targeting PROTAC Degraders” (J Med Chem, 2024).
